From the supplement of paper PMC10949913

Experiments:
Settings in all cases: 48 h
CU-ACC2 [1] = assay: AC50 viability; higher = less potent
Summary of the method: (§1)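 After 48 h of treatment with 23 nL of each library compound at 11 concentrations, three adrenocortical carcinoma cell lines in 1,536-well plates (500–1,000 cells/well, 5 µL medium) were given CellTiter-Glo for 15 minutes at room temperature. Luminescence was then read and normalised per plate to vehicle and empty-well controls. AC50 and area under the curve were drawn from fitted concentration-response curves of inhibitory or non-responding classes only.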

CU-ACC2 [2] = assay: area under concentration-response curve (viability) (AUC (a.u.)); higher = less active
Summary of the method: as §1

CU-ACC1 [3] = assay: as above
Summary of the method: as §1

NCI-H295R [4] = assay: as above
Summary of the method: as §1

NCI-H295R [5] = assay: AC50 viability; higher = less potent
Summary of the method: as §1

CU-ACC1 [6] = assay: AC50 viability; higher = less potent
Summary of the method: as §1

Row | SMILES | AC50 viability (CU-ACC2 [1]) | area under concentration-response curve (CU-ACC2 [2]) | area under concentration-response curve (CU-ACC1 [3]) | area under concentration-response curve (NCI-H295R [4]) | AC50 viability (NCI-H295R [5]) | AC50 viability (CU-ACC1 [6])
1 | COc1c(Cl)cc2c([nH]c3cnccc32)c1NC(=O)c1cccnc1C | 7.42 µM | 374 | – | – | – | –
2 | C[C@H](NC(=O)[C@@H]1C[C@@H](O)CN1C(=O)[C@@H](NC(=O)COCCCOCCNC(=O)C[C@@H]2\N=C(C3=CC=C(Cl)C=C3)/C4=C(SC(=C4C)C)[N]5C(=NN=C25)C)C(C)(C)C)C6=CC=C(C=C6)C7=C(C)N=CS7 | 8.33 µM | 478 | 474 | – | – | –
3 | CN(C)c1ccc(Nc2nc(N)n(C(=O)c3c(F)cccc3F)n2)cc1 | 16.6 µM | 553 | – | – | – | –
4 | Cc1cccc(-c2[nH]c(C(C)(C)C)nc2-c2ccc3nccnc3c2)n1 | 0.263 µM | 331 | 293 | – | – | –
5 | CO[C@@H]1C(N(C)C(=O)c2ccccc2)C[C@H]2O[C@]1(C)n1c3ccccc3c3c4c(c5c6ccccc6n2c5c31)C(=O)NC4=O (stereo partly specified) | 0.186 µM | 286 | 362 | – | – | –
6 | CN(C)c1ccc2nc3ccc(N(C)C)cc3[s+]c2c1.[Cl-] | 20.9 µM | 482 | – | – | – | –
7 | N#CCNC(=O)c1ccc(-c2ccnc(Nc3ccc(N4CCOCC4)cc3)n2)cc1 | 14.8 µM | 514 | – | – | – | –
8 | C=CC(=O)Nc1cccc(C)c1Nc1ncc2cc(-c3c(Cl)c(OC)cc(OC)c3Cl)ccc2n1 | 6.61 µM | 475 | – | – | – | –
9 | CN1CCN(c2cccc(Nc3nc4c(-c5ccc([S+](C)(=O)[O-])cc5)cccn4n3)c2)CC1 | 20.9 µM | 552 | – | – | – | –
10 | Cc1c(NC(=O)OC[C@@H]2COCCN2)cn2ncnc(Nc3ccc4c(cnn4Cc4cccc(F)c4)c3)c12 | 18.6 µM | 544 | 393 | – | – | –
11 | C=CC(=O)Nc1cccc(Nc2nc(Nc3ccc(OCCOC)cc3)ncc2F)c1 | 20.9 µM | 597 | – | 545 | – | –
12 | C=C(C)[C@@H]1CCC(C)=C[C@H]1c1c(O)cc(CCCCC)cc1O | 18.6 µM | 489 | 467 | – | – | –
13 | OCc1ccc(-c2ccc(-c3ccc(CO)s3)o2)s1 | 37.2 µM | 532 | 507 | – | – | –
14 | COc1cc(Nc2cnc(C#N)c(O[C@H](C)CN(C)C)n2)ncc1-c1cnn(C)c1 | 10.5 µM | 399 | 312 | – | – | –
15 | COc1cc2nc(-c3ccc(N4CCN(C)CC4)cc3)nc(NCCN3CCOCC3)c2cc1OC | 3.72 µM | 397 | – | – | – | –
16 | O=C(O)[C@H](Cc1c[nH]c2ccccc12)N1C(=O)c2ccccc2C1=O | 37.2 µM | 338 | – | – | – | –
17 | Cc1cnc(C(=O)NCCc2ccc([S+](=O)([O-])NC(=O)NC3CCCCC3)cc2)cn1 | 33.2 µM | 404 | 355 | – | – | –
18 | O=C(CCCCCCNC(=O)c1cnc(N(c2ccccc2)c2ccccc2Cl)nc1)NO | 11.8 µM | 502 | 464 | – | – | –
19 | CCOc1cc2ncc(C#N)c(Nc3ccc(F)c(Cl)c3)c2cc1NC(=O)/C=C/CN(C)C | 8.33 µM | 419 | – | – | – | –
20 | CNC(=O)c1cccc2cc(Oc3ccnc4cc(OCC5(N)CC5)c(OC)cc34)ccc12 | 1.66 µM | 305 | 356 | – | – | –
21 | C[S+](=O)([O-])c1cccc(CNc2nc(Nc3ccc4c(c3)CCC(=O)N4)ncc2C(F)(F)F)c1 | 23.5 µM | 467 | – | – | – | –
22 | C=CC[C@@H]1/C=C(\C)C[C@H](C)C[C@H](OC)[C@H]2O[C@@](O)(C(=O)C(=O)N3CCCC[C@H]3C(=O)O[C@H](/C(C)=C/[C@@H]3CC[C@@H](O)[C@H](OC)C3)[C@H](C)[C@@H](O)CC1=O)[C@H](C)C[C@@H]2OC | 18.6 µM | 390 | 383 | – | – | –
23 | CC(C)n1cnc2c(NCCc3ccc(O)cc3)nc(-c3csc4ccccc34)nc21 | 9.34 µM | 325 | 335 | – | – | –
24 | Cc1[nH]c(/C=C2\C(=O)Nc3ccc(F)cc32)c(C)c1C(=O)NCCN1CCCC1 | 14.4 µM | 525 | 522 | – | – | –
25 | CN1CCN(CC1)\C2=N\C3=C(NC4=C2C=CC=C4)C=CC(=C3)Cl | 33.2 µM | 398 | – | – | – | –

Row | SMILES | AC50 viability (CU-ACC2 [1]) | area under concentration-response curve (CU-ACC2 [2]) | area under concentration-response curve (CU-ACC1 [3]) | area under concentration-response curve (NCI-H295R [4]) | AC50 viability (NCI-H295R [5]) | AC50 viability (CU-ACC1 [6])
26 | CN1CCN(CCOc2cc(OC3CCOCC3)c3c(Nc4c(Cl)ccc5c4OCO5)ncnc3c2)CC1 | 23.5 µM | 548 | 547 | – | – | –
27 | FC1=CC2=C3[N](CCN(CC3=C1)C(=O)N4CCCCC4)C=C2C/5=C(C(=O)NC5=O)\C6=CN=C7C=CC=C[N]67 | 18.6 µM | 549 | – | – | – | –
28 | [2H]C([2H])([2H])C(O)([C@@H](C)/C=C/[C@@H](C)[C@H]1CC[C@H]2/C(=C/C=C3C[C@@H](O)C[C@H](O)C3)CCC[C@]12C)C([2H])([2H])[2H] | 0.235 µM | 309 | 347 | – | – | –
29 | CONC(=O)c1ccccc1Nc1cc(Nc2cc(C)nn2C(C)C)ncc1Cl | 16.6 µM | 459 | 455 | – | – | –
30 | CCN1C(=O)\C(=C/C2=CN=C(NCCC3CCN(C)CC3)N=C12)C4=CC=C(C=C4Cl)C5=CN=CC(=N5)C | 2.63 µM | 624 | 645 | – | – | –
31 | CC[C@H](CO)Nc1nc(NCc2ccccc2)c2ncn(C(C)C)c2n1 | 20.9 µM | 582 | – | – | – | –
32 | CC#CC(=O)N1CC[C@@H](n2c(=O)n(-c3ccc(Oc4ccccc4)cc3)c3c(N)ncnc32)C1 | 13.2 µM | 428 | 425 | – | – | –
33 | CNCc1ccc(-c2[nH]c3cc(F)cc4c3c2CCNC4=O)cc1 | 26.3 µM | 495 | 416 | – | – | –
34 | CCNC1(C(N)=O)CCN(c2ncnc3c2nc(-c2ccccc2Cl)n3-c2ccc(Cl)cc2)CC1 | 0.295 µM | 330 | – | – | – | –
35 | O=C(Nc1cc(Cl)cc2c1[nH]c1cnccc12)c1cccnc1 | 0.182 µM | 402 | – | – | – | –
36 | C[C@@H](N)c1ccc(C(=O)Nc2ccnc3[nH]ccc23)cc1 | 2.63 µM | 297 | 349 | – | – | –
37 | Fc1ccc(-c2nc(-c3ccccc3F)[nH]c2-c2ccncc2)cc1 | 33.2 µM | 399 | 336 | – | – | –
38 | COc1ccc2c(c1)[C@]1(C[C@H]1c1ccc3c(/C=C/c4ccc(CN5C[C@@H](C)O[C@@H](C)C5)cc4)n[nH]c3c1)C(=O)N2 | 1.86 µM | 344 | 384 | – | – | –
39 | COc1c(C)cnc(Cn2cnc3c(Cl)nc(N)nc32)c1C | 0.661 µM | 378 | 361 | – | – | –
40 | CC1(C)CC[C@@]2(CC[C@]3(C)[C@@H]([C@@H]2C1)C(=O)\C=C\4[C@@]3(C)CC[C@H]5C(C)(C)C(=O)\C(=C/[C@]45C)C#N)NC(=O)C(C)(F)F | 23.5 µM | 606 | – | – | – | –
41 | O=C(Nc1ccc([S+](=O)([O-])N2CCOCC2)cc1)c1cc(Cl)ccc1N[S+](=O)([O-])c1ccc(Cl)s1 | 18.6 µM | 530 | 481 | – | – | –
42 | CCOC(=O)c1ccnc(CNCC(=O)N(CC)CCN(C)C)c1 | 0.661 µM | 339 | 338 | – | – | –
43 | Clc1ccc(C(Cn2ccnc2)OCc2ccc(Sc3ccccc3)cc2)c(Cl)c1 (stereo unspecified) | 23.5 µM | 528 | – | – | – | –
44 | CC(C)[C@H](CO)Nc1nc(Nc2cccc(Cl)c2)c2ncn(C(C)C)c2n1 | 29.5 µM | 591 | 551 | – | – | –
45 | C=C(C)[C@H]1Cc2c(ccc3c2O[C@@H]2COc4cc(OC)c(OC)cc4[C@@H]2C3=O)O1 | – | 479 | 344 | 445 | 1.05 µM | 166 nM
46 | C\C1=C(\[C@@H](OC2=C1C=CC(=C2)O)C3=CC=C(OCCN4CCCCC4)C=C3)C5=CC=C(O)C=C5 | 0.295 µM | 333 | 296 | – | – | –
47 | CCc1ccc(C(=O)Nc2cc(CN3CCN(C)CC3)cc(C(F)(F)F)c2)cc1C#Cc1cnc2ccnn2c1 | – | 559 | 453 | 431 | 8.33 µM | 7420 nM
48 | CC1(C)C(N(O)C(=O)Nc2ccc(Cl)cc2)N(c2ccc(Cl)cc2)C(=O)N1CC(=O)N/N=C/C=C/c1ccc([N+](=O)[O-])o1 (stereo unspecified) | 23.5 µM | 561 | 511 | – | – | –
49 | CC(C)(C)NC(=O)c1cncn1C1CCN(c2ccc(-c3nnc(C(F)(F)F)o3)cn2)CC1 | – | 539 | 381 | 475 | 7.42 µM | 1660 nM
